The values below come from patent publication US7511078B2, “Antiallergic agents, drugs, foods, drinks or cosmetics containing them and process for producing the same” (Kikkoman Corporation, priority 2001, dated 2009).

In brackets after ≈: the same amount, converted by molar mass. Structures can show the parent of a compound that is named as a salt.

One series concerns rat fat cells. Kind of series: Histamine-release inhibiting activity from rat fat cells (Compound 48/80 induced). The series is classed as cell-based. The settings on record: for IC50: 50% inhibition rate; for inhibition at 250 µg/mL: sample concentration 250 μg/ml; for histamine-release inhibiting activity (FIG. 7): sample solutions 100 μg/ml each; for inhibition at 25 µg/mL: sample concentration 25 μg/ml; for inhibition at 75 µg/mL: sample concentration 75 μg/ml; for activity relative to the known agents (caffeic acid, ketotifen fumarate): from IC50 values of histamine-release inhibition. On the procedure:
Cells were collected from the abdominal cavity of rats immediately after being sacrificed by exsanguinations using heparin-containing fat cell buffer (composition: 0.150 M NaCl, 3.7 mM KCl, 3.0 mM Na2HPO4, 3.5 mM KH2PO4, 0.9 mM CaCl2, 5.6 mM D-glucose, 0.1% (w/v) gelatin) (Lectures on Experimental Biopharmacology, Vol.12, Inflammations and Allergies II, edited by Kazuo Ohuchi, published by Hirokawa Publishing, 1993, page 372). After washing the cells, the above heparin-containing fat cell buffer was added to a concentration of 2.0×10^5 cells/ml, and this was used as the cell suspension.
Meanwhile, 3 mg of tomato extract were dissolved in 1 ml of 1% dimethyl sulfoxide (DMSO) and used as a sample solution. Further, the naringenin chalcone obtained in Example 1-3, and ketotifen fumarate, which is known to have an antiallergic activity, were respectively dissolved in the heparin-containing fat cell buffer containing 0.15% DMSO (final concentration), and the tricaffeoylquinic acid obtained in Example 1-4, and caffeic acid, which is known to have an antiallergic activity, were respectively dissolved in heparin-containing fat cell buffer containing 0.08% ethanol (final concentration), and each of these were used as sample solutions having concentrations of 25-250 μg/ml.
80 μl of the above cell suspension were added to 20 μl of the sample solution and the mixture was incubated at 37° C. for 10 minutes. Subsequently, 20 μl of Compound 48/80 (5 μg/ml) were added as histamine-degranulation inducer, and the mixture was incubated for 10 minutes. After the mixture was cooled with ice, it was separated by centrifugation (1,500×g, 5 minutes, 4° C.), and the free histamine in the supernatant was measured by high-performance liquid chromatography equipped with a fluorescent detector.
Histamine-release inhibiting activity was calculated from the measured histamine values using calculation formula (1) shown below. Histamine-release inhibition rate (%)=(1−(S−B)/(C−B))×100 (1) • B: Amount of histamine released from control cells in the absence of inducer • C: Amount of histamine released from cells in the presence of inducer • S: Amount of histamine released from cells in the presence of test sample and inducer

The next series concerns rat macrophages. Kind of series: Leukotriene B4 release inhibiting activity from rat macrophages (opsonized zymosan, ELISA). It is filed as cell-based. The following applies: Macrophage, read-out: Inhibition rate (%); for inhibition at 5 µg/mL: sample concentration 5 μg/ml; for inhibition at 50 µg/mL: sample concentration 50 μg/ml; for inhibition at 500 µg/mL: sample concentration 500 μg/ml. How it is done: Soluble starch (Wako, grade 1) and Bactopeptone (Difco) were suspended in physiological saline (0.9% NaCl, Ohtsuka Pharmaceutical, Co.) to have a concentration of 5% each. After sterilizing with an autoclave (121° C., 20 minutes), the suspension was cooled down to room temperature. The suspension was administered by injection into rat abdominal cavity in an amount of 5 mL per 100 g of body weight under ether anesthesia (using a 21G needle).
Four days later, the rats were sacrificed by exsanguination from the carotid artery under ether anesthesia. After adequately exsanguinating the rats, the rats were sprayed with ethanol and placed in a clean bench. 25 mL of CMF-HBSS (Ca, Mg free HBSS) were injected into the abdominal cavity followed by adequately rubbing the abdomen. The rats were laparotimized using sterilized instruments, and the solution within the abdominal cavity was collected. The collected solution was filtered using three layers of gauze. The abdominal cavity was further washed with 25 mL of CMF-HBSS (Ca, Mg free HBSS), and the solution was collected in the same manner. The collected cells were washed three times with ice-cold 0.1% BSA-PBS, suspended in 10% FBS-RPMI1640 medium. The cell suspension was dispersed in a 6 cm Petri dish to have 4.5×10^6 cells/3 mL/dish, and incubated for 2 hours in an incubator kept at 5% CO2 and 37° C. Subsequently, the supernatant was discarded, the Petri dish was washed three times with PBS to rinse off non-adherent cells, and the cells adhered onto inside of the Petri dish were used as macrophages. After the macrophages were pre-incubated for 20 minutes in 1% FBS-RPMI1640 medium, zymosan opsoninized using rat serum was added thereto, and the mixture was cultured in an incubator kept at 5% CO2 and 37° C. for a predetermined period of time. Incidentally, samples were added 30 minutes before addition of zymosan. After completion of culture, supernatant from the culture was recovered and the amount of LTB4 in the supernatant was measured using an ELISA kit (Leukotriene B4 EIA Kit, Cayman). Activity of inhibiting release of leukotriene B4 was calculated from the measured leukotriene B4 values using the following calculation formula (2): Leukotriene B4 release inhibition rate (%)=(1−(S−B)/(C−B))×100 (2) • B: Amount of leukotriene B4 released from control cells in the absence of inducer • C: Amount of leukotriene B4 released from cells in the presence of inducer • S: Amount of leukotriene B4 released from cells in the presence of test sample and inducer
A general note: In an ELISA, binding on a coated surface is turned into a signal by an enzyme label.

In another series the test system is mouse auricular edema. Kind of series: Anaphylaxis inhibitory action in mouse auricular edema (anti-TNP-IgE / picryl chloride). It is filed as in vivo. How it is done:
C3H/Hecrj, 7-week-old female mice having body weights of 15-20 g were used in groups of five animals each. Tomato Extract 1 was suspended in 0.5% CMC-Na (sodium carboxymethyl cellulose) solution, while 0.5% CMC-Na was administered as a control. The samples were administered six times over the course of five days, and measurements were made on day 5. The animals were dosed once a day from day 1 through day 4, and on day 5, they were orally dosed twice, 4 hours before and 30 minutes after administration of anti-TNP-IgE solution. The dose of Tomato Extract 1 was 0.16 mg, 0.8 mg or 4 mg per 1 kg of mouse body weight.
0.2 ml of 1% anti-TNP-IgE solution was administered from the vein of eye ground, and 30 minutes later, sample solution was orally administered. Further 30 minutes later, thickness of the left and right ears were measured. Immediately after that, 10 μl of 0.8% acetone-olive oil (1:1) solution of picryl chloride was applied to each ear. The thickness of the left and right ears of the mice were measured two hours after application, and the difference in ear thickness before and after application was taken to represent edema caused by anaphylaxis. A test of significance was carried out using the Student's t-test.
Measurement was made in the same manner as in (1) above, except for administration method. Samples were administered six times over the course of five days, and measurement was made on day 5. The animals were dosed once a day from day 1 through day 4, and on day 5, they were orally dosed twice, 4 hours before and 30 minutes after administration of anti-TNP-IgE solution. The dose of tricaffeoylquinic acid was 0.16 mg, 0.8 mg, 4 mg or 20 mg per kilogram of mouse body weight.

Series [1] is described as follows: Cytotoxicity test (Trypan Blue, rat abdominal cavity cells). It is filed as cell-based. The settings on record: various concentrations, 37° C., 0-120 minutes. How it is done:
To 80 μl of cell suspension (1-2×10^6 cells/ml) prepared in the same manner as in Example 2 were added 20 μl of sample solutions (Tomato Extract 1, naringenin chalcone, tricaffeoylquinic acid or dicaffeoylsuccinylquinic acid obtained in Example 1) with various concentrations, and the mixture was cultured at 37° C. Each of 10 μl aliquots was taken after 0, 10, 20, 60 and 120 minutes from the start of culturing, and each aliquot was added to 20 μl of 0.4% Trypan Blue prepared in advance. Judging those cells that were stained with blue pigment to be dead cells, the number of cells was counted under microscopic examination using a hemocytometer. Viability (percentage of viable cells to the total number of cells) and the number of viable cells were measured.

Setting [2] is: Rattus norvegicus, histamine release.
Setting [3] is: Rattus norvegicus, histamine release, read-out: Inhibition rate (%).

By IC50 is commonly meant the concentration at which inhibition is half-maximal. High values mean weaker potency in that assay, low ones greater potency in that assay. As usually defined, the inhibition is the percentage by which the read-out fell short of the control. In turn, `O=C(O)/C=C/c1ccc(O)c(O)c1` [Caffeic acid, caffeic acid, reference compound] registered an IC50 in the series with rat fat cells (setting [2]) of approximately 250 µg/mL (≈ 1390 µM). Further, the inhibition at 250 µg/mL in the series on rat fat cells (setting [3]) came out at 50.1%. Moreover, the “histamine-release inhibiting activity (FIG. 7)” value with rat fat cells is “more potent in the order of caffeic acid followed by dicaffeoylquinic acid”.

`CN1CCC(=C2c3ccccc3CC(=O)c3sccc32)CC1` [Ketotifen fumarate, ketotifen fumarate, reference compound] yielded an IC50 in the series on rat fat cells (setting [2]) of approximately 250 µg/mL. Further, in the series with rat fat cells (setting [3]), the inhibition at 25 µg/mL worked out at 0%, the inhibition at 75 µg/mL turned out to be 13.1% and the inhibition at 250 µg/mL amounted to 49.4%.

`O=C(/C=C/c1ccc(O)cc1)c1c(O)cc(O)cc1O` [Naringenin chalcone, 2′,4′,6′,4-tetrahydroxy-chalcone] came in with an IC50 with rat fat cells (setting [2]) of approximately 70 µg/mL (≈ 257 µM). In the series with rat fat cells (setting [3]), the inhibition at 25 µg/mL was found to be 28.2% and the inhibition at 75 µg/mL was found to be 53.9%. Also, the inhibition at 50 µg/mL in the series with rat fat cells (Rattus norvegicus, histamine release, sample concentration 50 μg/ml, read-out: Inhibition rate (%)) amounted to 37.6%. Further, in the series with rat fat cells (Rattus norvegicus, histamine release, sample concentration 200 μg/ml, read-out: Inhibition rate (%)), the inhibition at 200 µg/mL turned out to be 82%. The “activity relative to the known agents (caffeic acid, ketotifen fumarate)” value in the series on rat fat cells was “roughly 3.5 times”. Besides, in the series with rat macrophages, the inhibition at 5 µg/mL was 62.3%, the inhibition at 50 µg/mL came to 93.5% and the inhibition at 500 µg/mL was found to be 98.2%. In addition, in the series with mouse auricular edema (doses 0.0064, 0.032, 0.16 or 0.8 mg per kg), the “anaphylaxis inhibitory action (FIG. 8)” value is recorded as “exhibited an anaphylaxis inhibitory action dose-dependently”. For the same compound, the “cytotoxicity (viability and number of viable cells)” value (from here on “cytotoxicity”) in series [1] is on record as “no cytotoxicity was observed”.

Regarding `O=C(/C=C/c1ccc(O)c(O)c1)OC1CC(O)(C(=O)O)CC(OC(=O)/C=C/c2ccc(O)c(O)c2)C1OC(=O)/C=C/c1ccc(O)c(O)c1` (stereo not drawn) [Tricaffeoylquinic acid, 3,4,5-tricaffeoylquinic acid], the IC50 with rat fat cells (setting [2]) is approximately 25 µg/mL (≈ 36.8 µM). In the series with rat fat cells (setting [3]), the inhibition at 25 µg/mL is 54.1% and the inhibition at 75 µg/mL is 93.2%. For the same compound, in the series with rat fat cells, the “activity relative to the known agents (caffeic acid, ketotifen fumarate)” value is listed as “roughly 10 times” and the “histamine-release inhibiting activity (FIG. 7)” value is “exhibited a significantly high activity”. In the series with rat macrophages, the inhibition at 5 µg/mL is 33.5%, the inhibition at 50 µg/mL came to 65.8% and the inhibition at 500 µg/mL stood at 69.7%. Moreover, the “anaphylaxis inhibitory action (FIG. 9)” value with mouse auricular edema (dose 4 mg per kg) is “exhibited an anaphylaxis inhibitory action”. For the same compound, the “anaphylaxis inhibitory action (FIG. 10)” value in the series on mouse auricular edema (orally administered, 0.16, 0.8, 4 or 20 mg per kg, six doses over five days) was “exhibited an anaphylaxis inhibitory action”. For the same compound, the “cytotoxicity” value in series [1] is on record as “no cytotoxicity was observed”.

For `O=C(/C=C/c1ccc(O)c(O)c1)O[C@@H]1C[C@](O)(C(=O)O)C[C@@H](O)[C@H]1O` [chlorogenic acid, reference compound], the “histamine-release inhibiting activity (FIG. 7)” value in the series with rat fat cells was “did not inhibit histamine-release”.

As for `O=C(O)CCC(=O)OC1C(OC(=O)/C=C/c2ccc(O)c(O)c2)CC(O)(C(=O)O)CC1OC(=O)/C=C/c1ccc(O)c(O)c1` (stereo not drawn) [dicaffeoylsuccinylquinic acid, 3,5-dicaffeoyl-4-succinylquinic acid], the “histamine-release inhibiting activity (FIG. 7)” value in the series on rat fat cells is “exhibited a significantly high activity”. In addition, the “cytotoxicity” value in series [1] was “no cytotoxicity was observed”.

Consider `O=C(O)[C@]1(O)C[C@@H](O)[C@@H](O)[C@H](O)C1` [quinic acid, reference compound], for which the “histamine-release inhibiting activity (FIG. 7)” value in the series on rat fat cells is on record as “did not inhibit histamine-release”.
